ChEMBL document CHEMBL6114966, “Discovery of maleimide derivatives as m6A demethylase ALKBH5 inhibitors” (Bioorg Med Chem, 2025)
pIC50: −log10 of the molar value. The source made the active and inactive calls. The calls are words filed in the database; no cut-off is given here.

Assays:
[1] = biological target: T1, RNA demethylase ALKBH5 (Homo sapiens, UniProt Q6P6C2); experiment: Inhibition of ALKBH5 (unknown origin) using 5'-ATTGTCA(m6A)CAGCAGA-FAM-3' as substrate measured after 30 mins by fluorescence polarization assay
Target sequence in this assay (Q6P6C2 whole entry): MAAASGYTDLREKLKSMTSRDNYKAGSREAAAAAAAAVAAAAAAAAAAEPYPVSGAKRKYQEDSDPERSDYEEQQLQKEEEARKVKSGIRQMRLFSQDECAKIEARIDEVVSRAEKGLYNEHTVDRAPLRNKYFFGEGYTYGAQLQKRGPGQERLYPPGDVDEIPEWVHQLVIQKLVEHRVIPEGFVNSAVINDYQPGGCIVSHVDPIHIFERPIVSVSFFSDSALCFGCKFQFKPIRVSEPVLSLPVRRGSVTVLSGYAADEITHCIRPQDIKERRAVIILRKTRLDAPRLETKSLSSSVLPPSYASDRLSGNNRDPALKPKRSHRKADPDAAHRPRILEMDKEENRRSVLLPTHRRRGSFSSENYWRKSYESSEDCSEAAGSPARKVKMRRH

[2] = biological target: T1, RNA demethylase ALKBH5; experiment: Binding affinity to ALKBH5 (unknown origin) assessed as change in melting temperature at 100 uM measured after 30 mins by thermal shift assay
Target sequence in this assay (Q6P6C2 2-394 limits assumed): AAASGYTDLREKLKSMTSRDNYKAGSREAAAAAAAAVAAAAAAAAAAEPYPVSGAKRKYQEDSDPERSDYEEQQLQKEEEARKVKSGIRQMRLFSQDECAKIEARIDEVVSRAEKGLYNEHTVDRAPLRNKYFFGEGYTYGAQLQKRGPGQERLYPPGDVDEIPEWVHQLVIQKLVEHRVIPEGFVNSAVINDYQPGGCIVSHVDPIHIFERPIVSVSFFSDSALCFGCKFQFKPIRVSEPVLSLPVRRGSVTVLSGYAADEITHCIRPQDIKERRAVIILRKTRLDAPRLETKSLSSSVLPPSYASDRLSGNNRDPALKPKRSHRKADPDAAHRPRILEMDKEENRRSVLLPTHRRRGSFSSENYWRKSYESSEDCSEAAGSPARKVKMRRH

[3] = biological target: T1, RNA demethylase ALKBH5; experiment: Binding affinity to ALKBH5 (unknown origin) assessed as change in melting temperature at 25 uM measured after 30 mins by thermal shift assay
Target sequence in this assay (Q6P6C2 2-394 limits assumed): as above

[4] = biological target: T1, RNA demethylase ALKBH5; experiment: Binding affinity to ALKBH5 (unknown origin) assessed as change in melting temperature at 50 uM measured after 30 mins by thermal shift assay
Target sequence in this assay (Q6P6C2 2-394 limits assumed): as above

[5] = biological target: T1, RNA demethylase ALKBH5; experiment: Inhibition of ALKBH5 (unknown origin) using 5'-TAGACATTGCCATTCTCGATAGG (m6A) TCCGGTCAAACCTAGAC GAATTCCA-3' as substrate measured after 2 hrs in presence of 2-OG by PAGE based restriction enzyme digestion assay
Target sequence in this assay (Q6P6C2 whole entry): as the sequence (Q6P6C2 whole entry) above

[6] = biological target: T1, RNA demethylase ALKBH5; experiment: Inhibition of ALKBH5 in human MV4-11 cells assessed as down regulation of TACC3 expression measured after 48 hrs by Western blot analysis; format: cell-based; details: dose 5-40 µM
Target sequence in this assay (Q6P6C2 2-394 limits assumed): as the sequence (Q6P6C2 2-394 limits assumed) above

[7] = system: MV4-11; experiment: Antiproliferative activity against human MV4-11 cells assessed as reduction in cell viability measured after 72 hrs by CellTiter-Lumi luminescence assay; format: functional, cell-based; details: MV4-11, 72 h
[8] = biological target: T1, RNA demethylase ALKBH5; experiment: Inhibition of ALKBH5 (unknown origin) at 20 to 100 uM using 5'-TAGACATTGCCATTCTCGATAGG (m6A) TCCGGTCAAACCTAGAC GAATTCCA-3' as substrate measured after 2 hrs in presence of 2-OG by PAGE based restriction enzyme digestion assay; details: dose 20-100 µM
Target sequence in this assay (Q6P6C2 2-394 limits assumed): as the sequence (Q6P6C2 2-394 limits assumed) above

[9] = biological target: T1, RNA demethylase ALKBH5; experiment: Inhibition of ALKBH5 in human MV4-11 cells assessed as upregulation of p21 mRNA expression measured after 48 hrs by RT-qPCR analysis; format: cell-based; details: dose 10-40 µM
Target sequence in this assay (Q6P6C2 2-394 limits assumed): as the sequence (Q6P6C2 2-394 limits assumed) above

[10] = biological target: T1, RNA demethylase ALKBH5; experiment: Inhibition of ALKBH5 in human MV4-11 cells assessed as down regulation of TACC3 mRNA expression measured after 48 hrs by RT-qPCR analysis; format: cell-based; details: dose 10-40 µM
[11] = biological target: T1, RNA demethylase ALKBH5; experiment: Inhibition of ALKBH5 in human MV4-11 cells assessed as down regulation of AXL mRNA expression measured after 48 hrs by RT-qPCR analysis; format: cell-based; details: dose 10-40 µM
[12] = biological target: T2, Alpha-ketoglutarate-dependent dioxygenase FTO (Homo sapiens, UniProt Q9C0B1); experiment: Inhibition of FTO (unknown origin) using 5'-TAGACATTGCCATTCTCGATAGG (m6A) TCCGGTCAAACCTAGAC GAATTCCA-3' as substrate measured after 2 hrs in presence of 2-OG by PAGE based restriction enzyme digestion assay
Target sequence in this assay (Q9C0B1 whole entry): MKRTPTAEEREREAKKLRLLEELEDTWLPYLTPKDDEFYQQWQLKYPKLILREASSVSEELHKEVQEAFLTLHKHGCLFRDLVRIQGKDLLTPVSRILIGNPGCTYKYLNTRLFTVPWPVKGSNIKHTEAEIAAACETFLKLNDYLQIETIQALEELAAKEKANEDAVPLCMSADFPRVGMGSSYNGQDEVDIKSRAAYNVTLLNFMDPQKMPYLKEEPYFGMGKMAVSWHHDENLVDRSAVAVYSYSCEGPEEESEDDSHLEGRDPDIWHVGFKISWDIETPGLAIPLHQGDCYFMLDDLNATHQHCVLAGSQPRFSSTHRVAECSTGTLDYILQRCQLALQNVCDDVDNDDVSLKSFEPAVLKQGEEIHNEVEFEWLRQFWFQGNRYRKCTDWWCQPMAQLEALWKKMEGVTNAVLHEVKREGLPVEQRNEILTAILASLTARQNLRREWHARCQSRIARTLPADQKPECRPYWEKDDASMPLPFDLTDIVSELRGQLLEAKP

[13] = biological target: T2, Alpha-ketoglutarate-dependent dioxygenase FTO; experiment: Inhibition of FTO (unknown origin) at 25 to 200 uM using 5'-TAGACATTGCCATTCTCGATAGG (m6A) TCCGGTCAAACCTAGAC GAATTCCA-3' as substrate measured after 2 hrs in presence of varying levels of 2-OG by PAGE based restriction enzyme digestion assay; details: dose 25-200 µM
Target sequence in this assay (Q9C0B1 whole entry, looked up): as the sequence (Q9C0B1 whole entry) above

[14] = biological target: T1, RNA demethylase ALKBH5; experiment: Binding affinity to ALKBH5 (unknown origin) by 1H NMR STD analysis
[15] = biological target: T1, RNA demethylase ALKBH5; experiment: Inhibition of ALKBH5 in human MV4-11 cells assessed as increase in intracellular m6A level by dot blot assay; format: cell-based; details: dose 20-40 µM

SMILES	pIC50 [1]	also measured
O=C1C(Cl)=C(Nc2ccccc2)C(=O)N1c1ccc(Cl)c(Cl)c1	4.34	ΔTm [2]: -2.4 °C; ΔTm [3]: -1.2 °C; ΔTm [4]: -1.3 °C; pIC50 [5]: > 4.00
O=C(O)c1ccccc1NC1=C(Cl)C(=O)N(c2ccc([N+](=O)[O-])c(Br)c2)C1=O	4.78	
N#Cc1cc(C(F)(F)F)ccc1N1C(=O)C(Cl)=C(Nc2ccccc2C(=O)O)C1=O	< 3.70	
O=C(O)c1ccccc1NC1=C(Cl)C(=O)N(c2ccccc2Cl)C1=O	4.32	
N#Cc1ccc(Br)cc1N1C(=O)C(Cl)=C(Nc2ccccc2C(=O)O)C1=O	4.16	
O=C(O)c1ccc(F)cc1NC1=C(Cl)C(=O)N(c2ccc(Br)c(Br)c2)C1=O	5.27	
Cc1ccc(Br)cc1N1C(=O)C(Cl)=C(Nc2ccccc2C(=O)O)C1=O	< 3.70	
NS(=O)(=O)c1cccc(NC2=C(Cl)C(=O)N(c3ccc(Cl)c(Cl)c3)C2=O)c1	< 3.70	
Cc1cc([N+](=O)[O-])c(Br)cc1N1C(=O)C(Cl)=C(Nc2ccccc2C(=O)O)C1=O	< 3.70	
COC(=O)c1cccc(NC2=C(Cl)C(=O)N(c3ccc(Cl)c(Cl)c3)C2=O)c1	< 3.70	
Cc1cc(N2C(=O)C(Cl)=C(Nc3ccccc3C(=O)O)C2=O)ccc1C(F)(F)F	< 3.70	
O=C(O)c1ccccc1NC1=C(Cl)C(=O)N(c2ccc(C(F)(F)F)c(Br)c2)C1=O	4.77	inhibition [8]: Active; pIC50 [5]: 4.59
N#Cc1ccc(N2C(=O)C(Cl)=C(Nc3ccccc3C(=O)O)C2=O)cc1Br	4.73	
Cc1ccc(C(=O)O)c(NC2=C(Cl)C(=O)N(c3ccc(Br)c(Br)c3)C2=O)c1	< 3.70	

Now from value to molecule, other results behind:

pIC50 [1]	SMILES	also measured
4.76	O=C(O)c1ccccc1NC1=C(Cl)C(=O)N(c2ccc(Br)c(Br)c2)C1=O	
4.67	O=C(O)c1ccccc1NC1=C(Cl)C(=O)N(c2cccc(Br)c2)C1=O	
< 3.70	N#Cc1ccc(N2C(=O)C(Cl)=C(Nc3ccccc3C(=O)O)C2=O)cc1	
< 3.70	O=C(O)c1ccccc1NC1=C(Cl)C(=O)N(c2cccc(O)c2)C1=O	
4.53	O=C(O)c1ccccc1NC1=C(Cl)C(=O)N(c2cccc(Cl)c2)C1=O	
< 3.70	O=C(O)c1ccccc1NC1=C(Cl)C(=O)N(c2ccc(O)cc2)C1=O	
4.47	CC(=O)c1ccc(N2C(=O)C(Cl)=C(Nc3ccccc3C(=O)O)C2=O)cc1	
4.48	Cc1ccc(N2C(=O)C(Cl)=C(Nc3ccccc3C(=O)O)C2=O)cc1Br	
< 3.70	COc1ccc(N2C(=O)C(Cl)=C(Nc3ccccc3C(=O)O)C2=O)cc1	
5.63	O=C(O)c1ccccc1NC1=C(Cl)C(=O)N(c2ccc(I)c(Cl)c2)C1=O	inhibition [6]: Dose-dependent-effect; pIC50 [7]: 4.50; inhibition [8]: Active; inhibition [9]: Dose-dependent-effect; inhibition [10]: Dose-dependent-effect; inhibition [11]: Dose-dependent-effect; pIC50 [12]: < 3.60; inhibition [13]: Active; Activity [14]: Active; pIC50 [5]: 4.95; inhibition [15]: Dose-dependent-effect
< 3.70	C#Cc1cccc(N2C(=O)C(Cl)=C(Nc3ccccc3C(=O)O)C2=O)c1	
4.43	O=C(O)c1ccccc1NC1=C(Cl)C(=O)N(c2cccc(I)c2)C1=O	
4.69	O=C(O)c1ccccc1NC1=C(Cl)C(=O)N(c2ccc(Cl)c(Cl)c2)C1=O	
5.02	O=C(O)c1ccccc1NC1=C(Cl)C(=O)N(c2ccc(I)c(Br)c2)C1=O	
